The text below walks through data of patent EP0319906A2, “Novel quinoline derivatives, processes for preparation thereof and antibacterial agent containing them” (Dainippon Pharmaceutical Co., Ltd., priority 1987, dated 1989).

A short description of one data set: in vivo. Conditions: mouse, po, orally given to male mice (ddY), dead mice counted after 7 days, Behrens-Kaerber method, read-out: LD₅₀. The protocol: A suspension containing each of compounds of this invention in various concentrations was orally given to male mice (ddY) at a dose of 0.1 ml per 10 g of body weight. The number of dead mice was counted after 7 days, and the value of median lethal dose (LD₅₀, mg/kg) was calculated in accordance with the Behrens-Kaerber method.

The next data set concerns S. marcescens S-9. Nature of the data set: In vitro antibacterial activity, twofold agar-dilution MIC. In kind it is cell-based. Conditions: Serratia marcescens, S9; S. marcescens S-9; Mueller-Hinton agar, 20-hour incubation at 37 °C; calculated for free base; read-out: minimum inhibitory concentrations (MIC). The protocol:
(§1) The figures in the table show minimum inhibitory concentrations (MIC) (µg/ml), calculated for free base. […] One loopful of an overnight culture of test organisms in Mueller-Hinton broth was inoculated onto 10 ml drug- containing agar layers in petri dishes. Bacterial inocula contained approximately 10⁶ colonyl-forming units. […] The MIC was defined as the lowest drug concentration which prevented visible bacterial growth.

The subject of the next data set is S. epidermidis No. 8. The description is as above. In kind it is cell-based. Conditions: Staphylococcus epidermidis; S. epidermidis No. 8; Mueller-Hinton agar, 20-hour incubation at 37 °C; calculated for free base; read-out: minimum inhibitory concentrations (MIC). On the procedure: as §1
In the next data set the test system is P. aeruginosa 12. Described as above. The class given is cell-based. Conditions: Pseudomonas aeruginosa; P. aeruginosa 12; Mueller-Hinton agar, 20-hour incubation at 37 °C; calculated for free base; read-out: minimum inhibitory concentrations (MIC). On the procedure:
as §1

The test system of another data set is S. aureus Terajima. The description is as above. In kind it is cell-based. Conditions: Staphylococcus aureus; S. aureus Terajima; Mueller-Hinton agar, 20-hour incubation at 37 °C; calculated for free base; read-out: minimum inhibitory concentrations (MIC). The protocol: as §1
The next data set deals with S. aureus No. 80. The data set is described as above. In kind it is cell-based. Conditions: Staphylococcus aureus; S. aureus No. 80; Mueller-Hinton agar, 20-hour incubation at 37 °C; calculated for free base; read-out: minimum inhibitory concentrations (MIC). The protocol:
as §1

The next data set concerns S. pyogenes A65. Described as above. In kind it is cell-based. Conditions: Streptococcus pyogenes; S. pyogenes A65; Mueller-Hinton agar, 20-hour incubation at 37 °C; calculated for free base; read-out: minimum inhibitory concentrations (MIC). On the procedure:
as §1

In a further data set the test system is E. coli P-5101. The data set is described as above. The class given is cell-based. Conditions: Escherichia coli, P5101; E. coli P-5101; Mueller-Hinton agar, 20-hour incubation at 37 °C; calculated for free base; read-out: minimum inhibitory concentrations (MIC). The protocol: as §1
The next data set relates to E. coli NIHJ JC-2. The description is as above. Conditions: Escherichia coli, NIHJJC2; E. coli NIHJ JC-2; Mueller-Hinton agar, 20-hour incubation at 37 °C; calculated for free base; read-out: minimum inhibitory concentrations (MIC). The class given is cell-based. The protocol:
as §1

The next data set concerns S. aureus 209 JC-1. The description is as above. In kind it is cell-based. Conditions: Staphylococcus aureus, 209JC1; S. aureus 209 JC-1; Mueller-Hinton agar, 20-hour incubation at 37 °C; calculated for free base; read-out: minimum inhibitory concentrations (MIC). The protocol: as §1
A short description of data set [1]: Urinary excretion in mice. The class given is in vivo. On the procedure: A suspension containing Compound 1 was orally administered to mace at a dose of 5 mg/kg. Urine was collected over a period of 24 hours after administration. The level of the compound in urine was determined by the thin-layer cup-plated method using Escherichia coli kp as an indicator organism.

The next data set concerns M. pneumoniae Mac. The data set can be described thus: Antimycoplasma activity, twofold agar dilution MIC. The class given is cell-based. Conditions: Mycoplasmoides pneumoniae, 168 h; M. pneumoniae Mac; Chanock agar, 37 °C for 7 days, aerobically; calculated for free base; read-out: minimum inhibitory concentrations (MIC). The protocol:
The figures in the table show minimum inhibitory concentrations (MIC), (μg/ml), calculated for free base. Minimum inhibitory concentrations (MIC) were determined by the twofold agar dilution method. The media used were Chanock broth and agar [PPLD broth and agar (Difco) supplemented with 20 % horse serum and 10 % fresh yeast extract]. A 2-3 day broth culture of organisms was diluted with Chanock broth to a cell density of about 10^6 cells/ml. One loopful (about […]) of the organism dilution was spotted onto 10-ml drug containing Chanock agar in petri dishes using a multiple inoculator ([…] International). […] Incubation was performed anaerobically using the […] anaerobic system (BBL) for M. buccale, M. fermentans, M. hominis, M. orale and M. salivarium, and aerobically for other Mycoplasma spp. The MIC was defined as the lowest compound concentration at which no growth of organism was detected.

Data set [2] concerns C. Trachomatics G/ur 1317. Nature of the data set: Antichlamydia activity, MIC in McCoy cells (inclusion bodies). In kind it is cell-based. Conditions: C. Trachomatics G/ur 1317; McCoy cells, 36 °C for 40-48 hours; calculated for free base; read-out: minimum inhibitory concentrations (MIC). The protocol: (§2) The figures in the table show minimum inhibitory concentrations (MIC), (μg/ml), calculated for free base. Minimum inhibitory concentrations (MIC) were determined as follows. […] The cells were trypsinized and suspended in the same culture medium at a cell concentration of 1-2 x 10^5 cells/ml. One ml of the cell suspension was pipetted into flat-bottomed plastic tubes (14 mm in diameter) containing a cover slip (12 mm in diameter). The tubes were incubated in 5 % CO2-air at 36 °C for 20 hours. One-half ml of a chlamydial suspension (ca. 1-4 x 103 inclusion body forming units) was added into each tube, which was then centrifuged at 1500 x g for 60 minutes. The tubes were incubated for 1 hour at 36 °C. […] After further incubation at 36 °C for 40-48 hours, the cells on the cover glasses were stained with the Giemsa's solution. […] The MIC was defined as the lowest drug concentration where there were no inclusion bodies in all the cells on the cover slip.

The subject of data set [3] is C. Trachomatics G/ur 1448. The data set is described as above. In kind it is cell-based. Conditions: C. Trachomatics G/ur 1448; McCoy cells, 36 °C for 40-48 hours; calculated for free base; read-out: minimum inhibitory concentrations (MIC). On the procedure: as §2
For a further data set, the system named is C. Trachomatics G/ur 931. The description is as above. In kind it is cell-based. Conditions: C. Trachomatics G/ur 931; McCoy cells, 36 °C for 40-48 hours; calculated for free base; read-out: minimum inhibitory concentrations (MIC). The protocol: as §2
Data set [4] relates to C. Trachomatics G/ur 1242. The data set is described as above. In kind it is cell-based. Conditions: C. Trachomatics G/ur 1242; McCoy cells, 36 °C for 40-48 hours; calculated for free base; read-out: minimum inhibitory concentrations (MIC). The protocol:
as §2

≈ marks a conversion by molar mass, not a printed value.

As for `Cc1c(F)c(N2C[C@@H](C)N[C@@H](C)C2)c(F)c2c1c(=O)c(C(=O)O)cn2C1CC1` [Compound 1, 1-cyclopropyl-6,8-difluoro-5-methyl-7-(cis-3,5-demethyl-1-piperazinyl)-1,4-dihydro-4-oxoquinoline-3-carboxylic acid], the LD50 at 168 h in “in vivo” was above 2000 mg/kg. In addition, the MIC is 0.39 µg/mL (≈ 0.996 µM) in the data set with S. marcescens S-9; 0.025 µg/mL (≈ 0.0639 µM) in the data set on S. epidermidis No. 8; 0.2 µg/mL (≈ 0.511 µM) in the data set with P. aeruginosa 12; 0.05 µg/mL (≈ 0.128 µM) with S. aureus Terajima; 0.0125 µg/mL (≈ 0.0319 µM) with S. aureus No. 80; 0.2 µg/mL (≈ 0.511 µM) with S. pyogenes A65. Further, the MIC was 0.025 µg/mL (≈ 0.0639 µM) with E. coli P-5101; 0.025 µg/mL (≈ 0.0639 µM) with E. coli NIHJ JC-2; 0.05 µg/mL (≈ 0.128 µM) in the data set on S. aureus 209 JC-1; 0.05 µg/mL (≈ 0.128 µM) in the data set on M. pneumoniae Mac; 0.013 µg/mL (≈ 0.0332 µM) in data set [2]; 0.025 µg/mL (≈ 0.0639 µM) in data set [3]. The MIC with C. Trachomatics G/ur 931 is 0.013 µg/mL (≈ 0.0332 µM); in [4], 0.025 µg/mL (≈ 0.0639 µM). The molecule further gave an Amount in data set [1] (amount in urine over 24 hours after oral 5 mg/kg) of 0.105 mg. Moreover, in data set [1] (mouse, in vivo, oral 5 mg/kg, mice, read-out: Urinary recovery for 24 hours), the dose excreted at 24 h was determined as 12.7%. In data set [1] (urine collected over 24 hours after oral 5 mg/kg), this molecule returned a Volume of 14.0 mL.
